# According to patent publication US20080317674A1, “Method and Reagent for Measuring Nitroreductase Enzyme Activity” (priority 2004, published 2008):
# Tests used:
# [1] = target: T1, nitroreductase (NTR) (Escherichia coli, UniProt P38489); experiment: Nitroreductase gene reporter assay (adenoviral NF-κB NTR reporter, HeLa cells); type: cell-based; conditions: control sample cells containing the reporter, no agonist, vs mock transduced cells
# T1 construct: expressed in transfected cells
# Protocol: A reporter construct containing the NF-κB response element upstream of the NTR gene was constructed in pDC511 (Admax™). The reporter was packaged with AdS genomic DNA in helper cells, HEK293, and replication incompetent Adenovirus rescued.
# HeLa cells were subcultured for twenty-four hours prior to viral transduction and incubated overnight at 37° C. in a humidified atmosphere of 5% CO2 in Dulbecco's Modified Eagles medium containing 10% foetal calf serum +2 mM L-glutamine. After the overnight incubation, the cells were detached from each flask with trypsin, pooled to produce a suspension of cells and the cell concentration determined. The HeLa cell suspension was mixed with virus at a predetermined multiplicity of infection (MOI) in a sufficient minimal volume of complete medium to cover the base of a tissue culture flask; typically 15 ml for 10^6 cells in a T75 cm^2 Costar flask. The cell/virus suspension was returned to the incubator and left overnight at 37° C. in a humidified atmosphere of 5% CO2. […] The cells were detached with trypsin and pooled to produce a suspension of transduced cells; the concentration of the cell suspension was determined and adjusted to 5.0×10^4 cells per ml. […] The fluorescence signal was monitored over time by means of a Tecan “Ultra” fluorimeter. All substrates were measured under identical conditions to avoid instrument artefacts. […]
# [2] = target: T2, nitroreductase (Escherichia coli, UniProt P38489); experiment: Live cell NTR assays, signal retention after fixation of cells; type: cell-based; conditions: live cell NTR assay, cells fixed
# T2 construct: expressed in transfected cells
# T2 sequence (P38489 whole entry): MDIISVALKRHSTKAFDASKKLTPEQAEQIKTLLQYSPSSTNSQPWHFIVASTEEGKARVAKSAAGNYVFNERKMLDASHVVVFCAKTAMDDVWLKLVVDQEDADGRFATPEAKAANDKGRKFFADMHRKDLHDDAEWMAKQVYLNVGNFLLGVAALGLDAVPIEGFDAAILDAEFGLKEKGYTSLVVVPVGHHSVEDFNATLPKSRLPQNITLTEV
# Text: Further examples of the utility of nitro-substituted squaraine dyes (Compounds (2), (3) and (4)) as nitroreductase substrates are shown in live cell NTR assays, FIG. 5.
# [3] = target: NTR enzyme (Escherichia coli, UniProt P38489); experiment: Shift in absorption maximum after action of NTR upon a substrate; type: biochemical
# Chain of NTR enzyme (P38489 whole entry): as above
# Protocol: Compound (8) in DMSO (1 mMol) (4 μl ) was diluted into PBS buffer (0.01M) (1.76 ml). The UV/Vis spectrum of the solution was measured. The substrate has an absorbance maximum at 682 nm AU=0.22. To the solution was added NADH (0.01M in PBS) (200 μl) and NTR enzyme (446 ng/ml, 37 μl) the mixture was leave to stand at room temperature for 30 mins. After this time, the absorbance spectrum was re-measured. A new absorbance maximum at 621 nm, AU=0.17 is observed.
# T1 sequence (P38489 whole entry): as above
smiles,measurement,setting,value
"CN1/C(=C\C2=C([O-])C(=C\C3=[N+](Cc4cc([N+](=O)[O-])cc([N+](=O)[O-])c4)c4ccccc4C3(C)C)/C2=O)C(C)(C)c2ccccc21 [Compound (1), 2-(1-methyl-3,3-dimethyl-2-indolinylidenemethyl)-4-(1-(3,5-dinitrobenzyl)-3,3-dimethyl-2-indolinylidenemethyl)cyclobutenediylium-1,3-diolate]",detection of basal transcriptional activity,[1],not sensitive enough to detect this low level activity
"CC[n+]1c(/C=C2/C(=O)C(/C=C3\N(CCOCCOC)c4ccccc4C3(C)C)=C2[O-])sc2cc([N+](=O)[O-])ccc21 [Compound (4), 2-(3-ethyl-6-nitro-2-benzothiazolinylidenemethyl)-4-(1-(2-(2-methoxyethoxy)ethyl)-3,3-dimethyl-2-indolinylidenemethyl)cyclobutenediylium-1,3-diolate]",signal lost post-fixation,[2],~50%
"C[n+]1c(C=C2C(=O)C(C=C3N(CCCCS(=O)(=O)O)c4ccc(S(=O)(=O)O)cc4C3(C)C)=C2[O-])ccc2cc([N+](=O)[O-])ccc21 [Compound (8), 2-((3,3-dimethyl-5-sulfo-1-(4-sulfobutyl)-1,3-dihydro-2H-indol-2-ylidene)methyl)-4-((1-methyl-6-nitroquinolinium-2-yl)methylene)-3-oxocyclobut-1-en-1-olate]",new absorbance maximum after action of NTR,"[3]; NADH and NTR enzyme added, room temperature, 30 mins",621 nm
same,absorbance at new maximum after action of NTR,"[3]; at 621 nm, NADH and NTR enzyme added, room temperature, 30 mins",0.17 AU
same,absorbance maximum of substrate,"[3]; before NTR, PBS buffer 0.01M",682 nm
same,absorbance at maximum of substrate,"[3]; before NTR, at 682 nm, PBS buffer",0.22 AU
